Test results from patent US11331299B2, “Medicinal use of serrulatane diterpenes” (The University of Sydney, priority 2016, dated 2022).
Where two headings read alike, the source gives them in different places.

What was measured:
[1] = molecular target: T1, ASH1L (h) bromodomain (Homo sapiens, UniProt Q9NR48); experiment: Epigenetic binding assay, Bromodomain; conditions: for inhibition at 10 µM: read-out: % Inhibition of Control Specific Binding
T1 construct: ASH1L (h) bromodomain

[2] = molecular target: T2, PHIP(2) (h) bromodomain (Homo sapiens, UniProt Q8WWQ0); experiment: Epigenetic binding assay, Bromodomain; conditions: 10 μM; for inhibition at 10 µM: read-out: % Inhibition of Control Specific Binding
T2 construct: Bromodomain

[3] = molecular target: T3, BRD3(2) (h) bromodomain (Homo sapiens, UniProt Q15059); experiment: Epigenetic binding assay, Bromodomain; conditions: 10 μM; read-out: % Inhibition of Control Specific Binding
T3 construct: Bromodomain
T3 sequence (Q15059 306-415 limits assumed): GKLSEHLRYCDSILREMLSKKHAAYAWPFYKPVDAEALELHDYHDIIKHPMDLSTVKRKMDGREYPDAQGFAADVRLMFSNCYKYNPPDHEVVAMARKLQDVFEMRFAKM

[4] = molecular target: T4, CBX4 (h) chromodomain (Homo sapiens, UniProt O00257); experiment: Epigenetic binding assay, Chromodomain; conditions: read-out: % Inhibition of Control Specific Binding
T4 construct: Recognition and specificity determinants of the human cbx chromodomains; Eurofins CEREP (France), contract laboratory
T4 sequence (O00257 11-69 limits assumed): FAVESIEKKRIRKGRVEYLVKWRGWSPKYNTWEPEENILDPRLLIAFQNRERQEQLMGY

[5] = molecular target: JARID1B (h) (Homo sapiens, UniProt Q9UGL1); experiment: Epigenetic enzyme assay, Demethylases (KDMs); assay type: biochemical; conditions: for inhibition at 10 µM: read-out: % Inhibition of Control Values
Chain of JARID1B (h) (Q9UGL1 whole entry): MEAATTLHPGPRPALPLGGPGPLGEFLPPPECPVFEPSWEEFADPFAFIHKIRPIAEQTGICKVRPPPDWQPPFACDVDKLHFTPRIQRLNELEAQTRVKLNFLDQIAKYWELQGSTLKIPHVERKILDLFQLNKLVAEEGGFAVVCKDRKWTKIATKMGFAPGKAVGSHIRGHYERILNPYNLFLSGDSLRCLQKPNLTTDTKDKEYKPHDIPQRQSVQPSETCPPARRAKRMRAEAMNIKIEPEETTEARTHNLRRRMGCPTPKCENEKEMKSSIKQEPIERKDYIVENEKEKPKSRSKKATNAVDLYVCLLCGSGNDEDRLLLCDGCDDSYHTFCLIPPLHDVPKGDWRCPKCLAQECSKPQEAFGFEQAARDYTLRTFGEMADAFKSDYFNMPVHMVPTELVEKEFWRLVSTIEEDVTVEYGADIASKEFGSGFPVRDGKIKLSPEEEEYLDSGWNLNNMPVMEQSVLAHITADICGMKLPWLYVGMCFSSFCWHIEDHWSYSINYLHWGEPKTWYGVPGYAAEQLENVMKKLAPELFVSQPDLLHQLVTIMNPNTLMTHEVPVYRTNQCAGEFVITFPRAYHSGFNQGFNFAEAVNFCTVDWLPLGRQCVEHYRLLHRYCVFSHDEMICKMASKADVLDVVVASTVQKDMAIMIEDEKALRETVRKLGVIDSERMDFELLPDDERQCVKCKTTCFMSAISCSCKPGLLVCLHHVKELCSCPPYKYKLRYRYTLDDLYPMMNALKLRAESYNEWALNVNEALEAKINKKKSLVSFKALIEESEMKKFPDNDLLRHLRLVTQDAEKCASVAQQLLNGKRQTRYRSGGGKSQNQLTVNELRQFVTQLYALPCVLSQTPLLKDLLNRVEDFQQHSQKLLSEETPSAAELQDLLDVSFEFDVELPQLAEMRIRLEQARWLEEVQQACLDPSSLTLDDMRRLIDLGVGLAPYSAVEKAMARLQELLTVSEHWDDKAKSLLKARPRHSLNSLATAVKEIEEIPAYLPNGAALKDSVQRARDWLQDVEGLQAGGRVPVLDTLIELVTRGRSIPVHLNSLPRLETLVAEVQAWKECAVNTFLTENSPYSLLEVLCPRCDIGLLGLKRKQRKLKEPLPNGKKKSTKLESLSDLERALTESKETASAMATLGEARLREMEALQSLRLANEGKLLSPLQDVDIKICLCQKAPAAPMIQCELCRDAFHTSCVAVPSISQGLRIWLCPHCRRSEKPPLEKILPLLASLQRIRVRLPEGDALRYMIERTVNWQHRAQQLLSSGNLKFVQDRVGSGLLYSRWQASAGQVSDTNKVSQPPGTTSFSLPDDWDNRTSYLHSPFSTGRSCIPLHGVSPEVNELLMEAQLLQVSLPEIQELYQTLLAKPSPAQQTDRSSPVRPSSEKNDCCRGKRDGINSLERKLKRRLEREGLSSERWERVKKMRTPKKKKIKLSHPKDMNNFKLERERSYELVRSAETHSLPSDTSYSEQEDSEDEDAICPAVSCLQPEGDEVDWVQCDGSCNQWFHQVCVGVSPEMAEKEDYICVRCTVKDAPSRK

[6] = molecular target: pCAF(h) (Homo sapiens, UniProt Q92831); experiment: Epigenetic enzyme assay, Histone acetyltransferases (HATs); assay type: biochemical; conditions: read-out: % Inhibition of Control Values
Chain of pCAF(h) (Q92831 whole entry): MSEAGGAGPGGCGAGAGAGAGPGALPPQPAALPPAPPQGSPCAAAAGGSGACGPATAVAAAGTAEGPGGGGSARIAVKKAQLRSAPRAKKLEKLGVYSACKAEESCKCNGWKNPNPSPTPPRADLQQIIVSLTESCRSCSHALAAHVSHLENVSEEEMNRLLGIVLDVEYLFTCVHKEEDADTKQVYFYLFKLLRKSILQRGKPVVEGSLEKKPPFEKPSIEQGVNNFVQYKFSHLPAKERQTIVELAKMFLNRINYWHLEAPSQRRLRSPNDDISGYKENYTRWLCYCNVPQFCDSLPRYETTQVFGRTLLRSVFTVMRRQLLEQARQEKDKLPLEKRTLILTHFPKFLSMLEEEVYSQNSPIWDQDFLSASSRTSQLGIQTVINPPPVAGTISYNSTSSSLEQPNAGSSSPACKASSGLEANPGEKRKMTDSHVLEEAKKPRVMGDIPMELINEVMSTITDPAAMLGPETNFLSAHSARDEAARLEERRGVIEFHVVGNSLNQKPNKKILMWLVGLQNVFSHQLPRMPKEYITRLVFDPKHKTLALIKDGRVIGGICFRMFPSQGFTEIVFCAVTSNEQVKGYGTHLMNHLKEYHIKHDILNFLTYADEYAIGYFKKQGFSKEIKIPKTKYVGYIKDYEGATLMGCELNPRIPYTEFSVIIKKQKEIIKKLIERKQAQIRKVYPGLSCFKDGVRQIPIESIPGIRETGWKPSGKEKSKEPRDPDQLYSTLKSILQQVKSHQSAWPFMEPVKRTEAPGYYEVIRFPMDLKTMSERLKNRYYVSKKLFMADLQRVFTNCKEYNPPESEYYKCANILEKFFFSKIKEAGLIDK

[7] = molecular target: T5, sirtuin 1 (h) (inhibitor effect) (Homo sapiens, UniProt Q96EB6); experiment: Epigenetic enzyme assay, Sirtuins; assay type: biochemical; conditions: read-out: % Inhibition of Control Values
T5 sequence (Q96EB6 1-747): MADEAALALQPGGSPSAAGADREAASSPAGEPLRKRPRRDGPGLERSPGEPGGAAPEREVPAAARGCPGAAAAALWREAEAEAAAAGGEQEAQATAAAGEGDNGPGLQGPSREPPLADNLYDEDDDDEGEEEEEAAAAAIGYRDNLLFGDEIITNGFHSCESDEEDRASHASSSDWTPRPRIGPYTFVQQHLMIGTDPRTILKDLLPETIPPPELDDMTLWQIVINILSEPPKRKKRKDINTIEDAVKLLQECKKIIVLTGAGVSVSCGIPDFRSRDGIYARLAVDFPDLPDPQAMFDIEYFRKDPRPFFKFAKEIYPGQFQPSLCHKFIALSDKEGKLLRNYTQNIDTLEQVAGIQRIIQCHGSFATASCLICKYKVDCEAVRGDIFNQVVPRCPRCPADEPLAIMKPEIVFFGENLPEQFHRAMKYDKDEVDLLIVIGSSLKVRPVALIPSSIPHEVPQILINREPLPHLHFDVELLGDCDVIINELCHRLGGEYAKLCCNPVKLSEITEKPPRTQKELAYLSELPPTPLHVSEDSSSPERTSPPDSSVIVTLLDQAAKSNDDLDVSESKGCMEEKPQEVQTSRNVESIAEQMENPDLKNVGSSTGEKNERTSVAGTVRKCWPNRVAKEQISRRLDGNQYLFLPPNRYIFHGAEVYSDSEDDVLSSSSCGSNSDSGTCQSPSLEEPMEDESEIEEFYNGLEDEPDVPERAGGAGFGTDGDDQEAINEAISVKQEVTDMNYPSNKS

[8] = molecular target: Sirtuin 6 (h) (Homo sapiens, UniProt Q8N6T7); experiment: Epigenetic enzyme assay, Sirtuins; assay type: biochemical; conditions: 10 μM; read-out: % Inhibition of Control Values
Chain of Sirtuin 6 (h) (Q8N6T7 whole entry): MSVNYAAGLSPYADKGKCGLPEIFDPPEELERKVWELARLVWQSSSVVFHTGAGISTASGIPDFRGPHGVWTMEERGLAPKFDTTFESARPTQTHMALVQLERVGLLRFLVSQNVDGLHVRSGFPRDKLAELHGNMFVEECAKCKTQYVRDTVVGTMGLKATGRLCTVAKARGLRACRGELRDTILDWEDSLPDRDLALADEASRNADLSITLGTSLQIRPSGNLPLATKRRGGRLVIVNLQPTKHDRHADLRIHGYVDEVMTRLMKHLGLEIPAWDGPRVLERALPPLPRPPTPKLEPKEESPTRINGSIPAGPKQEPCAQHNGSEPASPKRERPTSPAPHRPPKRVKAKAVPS

[9] = molecular target: DOT1L (h) (Homo sapiens, UniProt Q8TEK3); experiment: Epigenetic enzyme assay, Methyltransferases (MTs); assay type: biochemical; conditions: read-out: % Inhibition of Control Values
Chain of DOT1L (h) (Q8TEK3 whole entry): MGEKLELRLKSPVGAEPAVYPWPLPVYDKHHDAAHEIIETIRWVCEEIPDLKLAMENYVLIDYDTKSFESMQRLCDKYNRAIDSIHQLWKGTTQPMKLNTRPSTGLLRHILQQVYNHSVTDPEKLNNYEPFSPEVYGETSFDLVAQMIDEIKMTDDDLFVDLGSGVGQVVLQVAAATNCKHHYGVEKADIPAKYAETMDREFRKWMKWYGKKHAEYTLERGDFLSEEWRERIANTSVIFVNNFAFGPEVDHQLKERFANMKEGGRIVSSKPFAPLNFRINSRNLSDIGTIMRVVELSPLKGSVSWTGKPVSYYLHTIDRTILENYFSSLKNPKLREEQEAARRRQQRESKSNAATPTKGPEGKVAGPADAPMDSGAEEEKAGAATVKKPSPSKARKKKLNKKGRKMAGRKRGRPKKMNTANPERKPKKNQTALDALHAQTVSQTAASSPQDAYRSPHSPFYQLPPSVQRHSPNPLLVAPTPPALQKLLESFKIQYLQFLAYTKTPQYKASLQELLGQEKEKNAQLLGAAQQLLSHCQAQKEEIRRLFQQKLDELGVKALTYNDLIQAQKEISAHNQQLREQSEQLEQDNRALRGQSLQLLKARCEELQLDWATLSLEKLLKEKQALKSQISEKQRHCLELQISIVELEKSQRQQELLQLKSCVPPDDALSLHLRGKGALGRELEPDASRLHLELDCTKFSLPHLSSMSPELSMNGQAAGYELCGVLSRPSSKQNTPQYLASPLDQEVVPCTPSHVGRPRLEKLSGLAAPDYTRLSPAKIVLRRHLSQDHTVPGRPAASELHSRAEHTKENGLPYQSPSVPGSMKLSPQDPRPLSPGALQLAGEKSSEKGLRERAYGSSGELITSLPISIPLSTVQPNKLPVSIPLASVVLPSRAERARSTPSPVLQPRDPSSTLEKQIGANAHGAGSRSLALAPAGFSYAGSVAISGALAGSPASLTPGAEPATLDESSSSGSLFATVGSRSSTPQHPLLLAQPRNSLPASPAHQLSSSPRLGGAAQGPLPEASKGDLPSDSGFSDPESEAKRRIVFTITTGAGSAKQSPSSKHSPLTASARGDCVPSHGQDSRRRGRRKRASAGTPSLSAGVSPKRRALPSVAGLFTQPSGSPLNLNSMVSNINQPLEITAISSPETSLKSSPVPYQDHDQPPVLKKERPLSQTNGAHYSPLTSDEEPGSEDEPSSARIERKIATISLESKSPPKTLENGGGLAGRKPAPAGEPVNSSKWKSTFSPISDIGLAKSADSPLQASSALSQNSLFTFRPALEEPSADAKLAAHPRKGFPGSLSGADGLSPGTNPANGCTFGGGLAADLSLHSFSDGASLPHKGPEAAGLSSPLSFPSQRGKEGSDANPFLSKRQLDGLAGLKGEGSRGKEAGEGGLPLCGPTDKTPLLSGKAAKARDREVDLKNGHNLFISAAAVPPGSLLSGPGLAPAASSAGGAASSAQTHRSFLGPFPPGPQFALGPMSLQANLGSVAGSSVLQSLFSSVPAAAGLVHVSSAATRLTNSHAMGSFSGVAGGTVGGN

[10] = molecular target: T6, IKK alpha(h) (substrate histone H3 full length) (Homo sapiens, UniProt O15111); experiment: Epigenetic enzyme assay, Kinases; assay type: biochemical; conditions: read-out: % Inhibition of Control Values
T6 sequence (O15111 1-745): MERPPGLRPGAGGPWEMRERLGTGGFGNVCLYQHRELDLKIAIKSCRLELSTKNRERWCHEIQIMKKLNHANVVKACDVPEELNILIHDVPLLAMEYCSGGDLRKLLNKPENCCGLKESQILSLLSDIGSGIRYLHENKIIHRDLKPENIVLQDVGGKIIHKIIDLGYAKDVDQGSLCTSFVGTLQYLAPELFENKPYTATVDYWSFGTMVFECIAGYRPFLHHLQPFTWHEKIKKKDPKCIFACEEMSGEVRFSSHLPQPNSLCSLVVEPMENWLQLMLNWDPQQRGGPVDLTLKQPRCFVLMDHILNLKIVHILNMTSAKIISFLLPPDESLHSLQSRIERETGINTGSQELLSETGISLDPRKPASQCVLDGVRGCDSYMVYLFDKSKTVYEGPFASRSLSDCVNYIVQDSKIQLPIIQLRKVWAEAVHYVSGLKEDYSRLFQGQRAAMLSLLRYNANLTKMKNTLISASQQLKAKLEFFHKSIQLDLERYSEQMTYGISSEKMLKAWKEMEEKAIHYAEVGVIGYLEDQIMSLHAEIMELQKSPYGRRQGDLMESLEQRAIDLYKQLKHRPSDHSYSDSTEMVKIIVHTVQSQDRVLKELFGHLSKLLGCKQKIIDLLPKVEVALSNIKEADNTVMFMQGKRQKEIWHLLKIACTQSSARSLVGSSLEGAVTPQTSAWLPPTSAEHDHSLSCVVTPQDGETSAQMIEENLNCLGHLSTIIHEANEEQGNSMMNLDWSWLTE

[11] = molecular target: T7, Glycine N-methyltransferase (h) (Homo sapiens, UniProt Q14749); experiment: Epigenetic enzyme assay, Small molecule methyltransferases; assay type: biochemical; conditions: read-out: % Inhibition of Control Values
T7 sequence (Q14749 1-295): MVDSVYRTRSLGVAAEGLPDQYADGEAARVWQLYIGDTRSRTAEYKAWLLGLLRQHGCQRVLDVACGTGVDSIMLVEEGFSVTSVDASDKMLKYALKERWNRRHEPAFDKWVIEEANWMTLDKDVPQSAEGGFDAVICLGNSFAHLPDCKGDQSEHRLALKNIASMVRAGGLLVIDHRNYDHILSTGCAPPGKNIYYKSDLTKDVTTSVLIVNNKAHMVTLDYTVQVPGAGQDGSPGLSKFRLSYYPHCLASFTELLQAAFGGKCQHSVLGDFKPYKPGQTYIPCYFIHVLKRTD

[12] = tested on: Chemokine CXCR1/2 (IL-8, Non-Selective); experiment: Chemokine CXCR1/2 (IL-8, Non-Selective) radio ligand binding; parameters: species or system Human; conditions: 10 μM; assay year 2015
Method: (§1) The in vitro pharmacological studies were conducted by Eurofins PanLab (Taiwan) using the parameters shown in Table 13 with respect to appropriate literature references.

[13] = molecular target: T8, Histamine H1 (Homo sapiens, UniProt P35367); experiment: Histamine H1 radio ligand binding
T8 construct: expressed in transfected cells; host or cells: Chem-1 cells
T8 sequence (P35367 whole entry): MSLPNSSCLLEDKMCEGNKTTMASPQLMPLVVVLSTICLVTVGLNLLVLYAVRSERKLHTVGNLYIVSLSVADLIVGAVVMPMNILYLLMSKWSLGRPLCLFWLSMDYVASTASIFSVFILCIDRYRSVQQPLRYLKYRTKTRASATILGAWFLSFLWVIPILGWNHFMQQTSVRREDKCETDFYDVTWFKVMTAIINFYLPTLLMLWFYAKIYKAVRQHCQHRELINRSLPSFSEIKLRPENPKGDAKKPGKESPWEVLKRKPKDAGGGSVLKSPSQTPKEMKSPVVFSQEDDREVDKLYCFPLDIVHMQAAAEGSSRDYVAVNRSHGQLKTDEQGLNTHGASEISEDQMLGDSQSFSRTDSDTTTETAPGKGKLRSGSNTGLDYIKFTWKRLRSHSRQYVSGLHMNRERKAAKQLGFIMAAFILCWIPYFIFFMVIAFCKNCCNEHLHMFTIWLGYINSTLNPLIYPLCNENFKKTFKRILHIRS
Method: as §1

[14] = assay year 2014, read-out: % Control Response
[15] = assay year 2015, read-out: % Control Response

Row | Structure (SMILES) | inhibition at 10 µM ([1]; 10 μM) [%] | inhibition at 10 µM [2] [%] | inhibition at 10 µM [3] [%] | inhibition at 10 µM [4] [%] | inhibition at 10 µM ([5]; 10 μM) [%] | inhibition at 10 µM [6] [%] | inhibition at 10 µM [7] [%] | inhibition at 10 µM [8] [%] | inhibition at 10 µM [9] [%] | inhibition at 10 µM [10] [%] | inhibition at 10 µM [11] [%] | % Control Response [12] [%] | remaining activity at 10 µM [13, 14] [%] | remaining activity at 10 µM [13, 15] [%] | further results
1 | CC(C)=CCC[C@H](CO)[C@@H]1CC[C@@H](C)c2c1cc(C)c(O)c2O [Compound 1, 7,8,18-trihydroxyserrulat-14-ene] | 95 | 61 | 35 | 25 | 70 | -25 | 2 | 2 | -5 | 26 | 55 | 30 | 85 | 97 | % Inhibition of Control Specific Binding ([1]; 10 μM): significant inhibitory activity; inhibition of binding, 1st ([1]; 3.0E−05M): 100.6; inhibition of binding, 2nd ([1]; 3.0E−05M): 99.6; inhibition of binding, Mean ([1]; 3.0E−05M): 100.1; inhibition of binding, 1st ([1]; 3.0E−06M): 17.0; inhibition of binding, 2nd ([1]; 3.0E−06M): 28.0; inhibition of binding, Mean ([1]; 3.0E−06M): 22.5; inhibition of binding, 1st ([1]; 3.0E−07M): −0.2; inhibition of binding, 2nd ([1]; 3.0E−07M): −2.9; inhibition of binding, Mean ([1]; 3.0E−07M): −1.6; inhibition of binding, 1st ([1]; 3.0E−08M): −12.3; inhibition of binding, 2nd ([1]; 3.0E−08M): 1.8; inhibition of binding, Mean ([1]; 3.0E−08M): −5.2; inhibition of binding, 1st ([1]; 3.0E−09M): −2.6; inhibition of binding, 2nd ([1]; 3.0E−09M): −8.2; inhibition of binding, Mean ([1]; 3.0E−09M): −5.4; IC50 ([1]; Table 9, inhibition/concentration-response curve, read-out: IC50): 4.2 µM; % Inhibition of Control Specific Binding [2]: significant inhibitory activity; % Inhibition of Control Values ([5]; 10 μM): significant inhibitory activity; IC50 ([5]; Table 11, inhibition/concentration-response curve): 3.6 µM
2 | CC(C)=CCC[C@@H]1C(O)Oc2c(C)cc(O)c3c2[C@H]1CC[C@H]3C (stereo partly shown) [Compound 2, 5,18-epoxyserrulat-14-en-8,18-diol] | 59 | 30 | 25 | 29 | 6 | -26 | -3 | 6 | 18 | 28 | 5 | −28 | 66 | 60 | –
3 | CC(C)=CCC[C@@H]1COc2c(C)cc(O)c3c2[C@H]1CC[C@H]3C [Compound 3, 5,18-epoxy-8-hydroxyserrulat-14-ene] | 42 | 23 | 1 | 40 | -2 | -20 | -5 | -4 | 13 | 14 | -11 | −1 | – | 50 | –
